This data set has as its system Fibroblast L 929. Put plainly: Cytotoxic effect of PDT on fibroblasts (MTT). Particulars: 100 μM photosensitiser, oxygen carrier, 20 min irradiation, MTT after 24 hours; hypochlorite 100 μL of 5.25%. In kind it is cell-based. As for the experimental part: The experiment described below was performed to assess the cytotoxic effect of PDT in combination with two photosensitisers: […] Sodium hypochlorite is traditionally used to disinfect root canals. Fibroblast L 929 was used in this experiment. Approximately 3.2×10^5 cells were seeded in 4 cm diameter culture dishes in DMEM media supplemented with 10% FCS. Cells were grown by incubating at 37° C., in a carbon dioxide incubator for 24 hours. After the incubation period, 100 μL of ICG (1 mM) was added (the final concentration of ICG was 100 μM). 100 μL of oxygen carrier, perfluorodecahydro naphthalene,] was also added and irradiation was performed for 20 minutes (without shaking). The cells were left in the media for 24 hours under incubation. Later, the supernatant media was removed without disturbing the cell line. The cell layer was washed with 1 mL PBS twice. MTT (0.125 mg % in DMEM), as an indicator of the viable status of cells in the media was added to the Petri dish and incubated at 37° C., for 4 hours. The excess of dye was washed with PBS (2 mL). MTT formed in the Petri dish was extracted and added to 1 mL of DMSO. The optical density at 570 nm was measured. Sodium hypochlorite (100 μL of 5.25%) was used as a control in this experiment. All chemicals were purchased from Sigma Aldrich, St. Louis. Fibroblast L 929 was used in this experiment. […] The optical density at 570 nm was measured. […]

Regarding `CC1(C)C(/C=C/C=C/C=C/C=C2\N(CCCCS(=O)(=O)O)c3ccc4ccccc4c3C2(C)C)=[N+](CCCCS(=O)(=O)[O-])c2ccc3ccccc3c21` [ICG, Indocyanine Green], the “cytotoxicity (cells surviving after PDT, ranking)” value is “lesser cytotoxicity”.

The values above are taken from patent US20090285766A1, “Photosensitising Composition and Uses Thereof” (National University of Singapore, priority 2005, published 2009).
